Measurements from PMC4225009, “Structure-activity-relationship study of N-acyl-N-phenylpiperazines as potential inhibitors of the Excitatory Amino Acid Transporters (EAATs): improving the potency of a micromolar screening Hit is not truism” (SpringerPlus, 2013).
Read-outs that look alike come from different tables or passages of the source.

Assays:
Assay type in all cases: cell-based
human EAAT3 = target: T1, human EAAT3 (Homo sapiens, UniProt P43005); test: [3H]-D-aspartate uptake assay at HEK293 cells stably expressing human EAAT3; details: for EAAT3 pIC50 ± S.E.M.: value in brackets, Table 1
T1 construct: expressed in transfected cells
T1 sequence (P43005 1-524): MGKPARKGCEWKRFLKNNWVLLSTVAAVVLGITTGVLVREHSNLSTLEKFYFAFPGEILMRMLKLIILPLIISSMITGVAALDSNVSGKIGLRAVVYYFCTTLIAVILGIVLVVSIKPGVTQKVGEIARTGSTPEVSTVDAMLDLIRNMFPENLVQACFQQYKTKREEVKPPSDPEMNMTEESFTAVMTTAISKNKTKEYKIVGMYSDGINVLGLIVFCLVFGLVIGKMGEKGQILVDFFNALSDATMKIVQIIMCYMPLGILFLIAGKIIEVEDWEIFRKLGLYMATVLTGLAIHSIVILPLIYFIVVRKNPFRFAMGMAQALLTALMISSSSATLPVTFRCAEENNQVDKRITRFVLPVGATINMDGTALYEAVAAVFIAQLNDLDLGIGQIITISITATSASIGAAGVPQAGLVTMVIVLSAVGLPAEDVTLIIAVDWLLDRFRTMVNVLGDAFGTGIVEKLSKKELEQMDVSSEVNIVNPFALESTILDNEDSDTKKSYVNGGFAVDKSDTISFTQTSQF
Source text: (§1) In total, […] piperazine analogs 2.1-2.40 and 3.1-3.12 were characterized pharmacologically at stable HEK293 cells expressing human EAAT1-3 in a [^3H]-D-aspartate uptake assay, (Jensen & Bräuner-Osborne [2004]) and the results are summarized in Table 1 and Table 2. […] Usually, such findings would lead to the conclusion that the bicyclo-[2.2.1]-heptanyl group occupies a promiscuous hydrophobic pocket, which could be optimized for increased potency. However, upon increasing or decreasing the hydrophobic bulk and/or flexibility, a clear drop in potency was observed (analogs 2.1-2.17, Table 1). […] These findings could open up for the hypothesis that the pocket is indeed not hydrophobic but instead hydrophilic in nature. Upon binding of the hydrophobic alkane group, water molecules are forced out and ligand binding is entropically driven rather than enthalpically. Thus analogs 2.18-2.31, which comprise a hydrophobic group, could be potential inhibitors.
(§2) Analogs 2.22-2.31, 2.36-2.40, 3.3, 3.4, 3.6 and 3.12 were obtained as 5 mg portions pre-dissolved in DMSO from ChemBridge corporation and used directly in the [3H]-Asp-uptake assay.

human EAAT2 = target: T2, human EAAT2 (Homo sapiens, UniProt P43004); test: [3H]-D-aspartate uptake assay at HEK293 cells stably expressing human EAAT2
T2 construct: expressed in transfected cells
T2 sequence (P43004 whole entry): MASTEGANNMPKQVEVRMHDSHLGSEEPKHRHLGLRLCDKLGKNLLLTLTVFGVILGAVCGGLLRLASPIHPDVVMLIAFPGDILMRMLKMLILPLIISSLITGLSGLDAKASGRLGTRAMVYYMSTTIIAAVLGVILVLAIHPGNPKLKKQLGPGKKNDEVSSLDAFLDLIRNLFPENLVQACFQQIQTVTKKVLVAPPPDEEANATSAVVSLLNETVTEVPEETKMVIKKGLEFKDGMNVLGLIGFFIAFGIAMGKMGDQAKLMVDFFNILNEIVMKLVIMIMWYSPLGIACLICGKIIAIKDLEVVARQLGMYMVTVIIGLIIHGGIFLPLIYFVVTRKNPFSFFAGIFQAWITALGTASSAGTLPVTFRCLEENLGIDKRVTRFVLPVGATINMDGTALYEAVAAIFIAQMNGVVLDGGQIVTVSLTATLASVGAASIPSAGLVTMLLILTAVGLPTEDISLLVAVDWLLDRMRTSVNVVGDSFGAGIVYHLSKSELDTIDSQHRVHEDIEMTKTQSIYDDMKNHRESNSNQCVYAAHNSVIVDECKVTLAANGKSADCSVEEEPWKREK
Source text: as §1, §2

human EAAT1 = target: T3, human EAAT1 (Homo sapiens, UniProt P43003); test: [3H]-D-aspartate uptake assay at HEK293 cells stably expressing human EAAT1
T3 construct: expressed in transfected cells
T3 sequence (P43003 whole entry): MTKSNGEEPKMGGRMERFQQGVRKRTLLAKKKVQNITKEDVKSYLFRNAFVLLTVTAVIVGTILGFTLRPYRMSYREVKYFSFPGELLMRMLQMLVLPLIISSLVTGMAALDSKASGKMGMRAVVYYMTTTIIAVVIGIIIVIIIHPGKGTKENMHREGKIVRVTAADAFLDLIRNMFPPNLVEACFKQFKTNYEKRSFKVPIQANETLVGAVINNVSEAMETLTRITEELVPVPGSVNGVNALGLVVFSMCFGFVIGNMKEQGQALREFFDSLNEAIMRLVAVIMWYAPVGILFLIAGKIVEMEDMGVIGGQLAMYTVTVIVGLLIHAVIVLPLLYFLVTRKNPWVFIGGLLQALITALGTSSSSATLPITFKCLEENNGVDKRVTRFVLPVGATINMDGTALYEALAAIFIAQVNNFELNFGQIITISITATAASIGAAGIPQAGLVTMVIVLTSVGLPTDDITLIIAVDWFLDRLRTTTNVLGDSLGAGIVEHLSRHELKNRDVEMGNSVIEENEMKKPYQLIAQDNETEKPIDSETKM
Source text: as §1, §2

human EAAT1-3 = test: [3H]-D-aspartate uptake assay, statements made for EAAT1-3 together; details: HEK293 cells expressing human EAAT1-3, [3H]-D-aspartate uptake
Source text: as §1, §2

[1] = [3H]-D-aspartate uptake, HEK293 cells stably expressing human EAAT3, analogs 1 and 2.1-2.40 (Table 1), read-out: EAAT3 IC50
[2] = [3H]-D-aspartate uptake, HEK293 cells stably expressing human EAAT2, analogs 1 and 2.1-2.40 (Table 1), read-out: EAAT2 IC50
[3] = [3H]-D-aspartate uptake, HEK293 cells stably expressing human EAAT1, analogs 1 and 2.1-2.40 (Table 1), read-out: EAAT1 IC50
[4] = D-aspartate uptake, HEK293 cells stably expressing human EAAT3, analogs 3.1-3.12 (Table 2), read-out: EAAT3 IC50
[5] = D-aspartate uptake, HEK293 cells stably expressing human EAAT2, analogs 3.1-3.12 (Table 2), read-out: EAAT2 IC50
[6] = D-aspartate uptake, HEK293 cells stably expressing human EAAT1, analogs 3.1-3.12 (Table 2), read-out: EAAT1 IC50

Structure (SMILES)	IC50 (human EAAT3; [1])	IC50 (human EAAT2; [2])	IC50 (human EAAT1; [3])	IC50 (human EAAT3)	IC50 (human EAAT2)	IC50 (human EAAT1)	also measured
FC(F)(F)c1cccc(N2CCN(CC3CC4CCC3C4)CC2)c1 (mixture of isomers) [(±)-endo-exo-2.34, (±)-endo-exo-Bicyclo[2.2.1]heptan-2-ylmethyl)-4-(3-(trifluoromethyl)phenyl)piperazine]	> 300 µM	> 300 µM	> 300 µM				
O=C(C1CC2CCC1C2)N1CCN(c2cccc(C(F)(F)F)c2)CC1 (mixture of isomers) [(±)-exo-1]		40 µM	10 µM				IC50 (human EAAT2; value in brackets, Table 1, read-out: EAAT2 pIC50 ± S.E.M. (converted)): 36.3 µM; inhibitory activity at EAAT1-3 (in words) (human EAAT1-3): IC50 values at the three transporters in the mid-micromolar range; IC50 (human EAAT1; value in brackets, Table 1, read-out: EAAT1 pIC50 ± S.E.M. (converted)): 9.33 µM
O=C([C@@H]1C[C@@H]2CC[C@H]1C2)N1CCN(c2cccc(C(F)(F)F)c2)CC1 (racemic) [(±)-endo-1, (±)-endo-Bicyclo[2.2.1]heptan-2-yl(4-(3-(trifluoromethyl)phenyl)piperazin-1-yl)methanone]	10 µM	32 µM	14 µM				EAAT3 pIC50 ± S.E.M. (human EAAT3): 5.04 ± 0.13; EAAT2 pIC50 ± S.E.M. (human EAAT2; value in brackets, Table 1): 4.52 ± 0.12; inhibitory activity at EAAT1-3 (in words) (human EAAT1-3): inhibitory potency in the mid-micromolar range; EAAT1 pIC50 ± S.E.M. (human EAAT1; value in brackets, Table 1): 4.88 ± 0.09
O=C(C1CC2CCC1C2)N1CCN(c2cccc(C(F)(F)F)c2)CC1 (racemic) [(±)-endo-exo-1, (±)-endo-exo-Bicyclo[2.2.1]heptan-2-yl(4-(3-(trifluoromethyl)phenyl)piperazin-1-yl)methanone]	14 µM	42 µM	14 µM				EAAT3 pIC50 ± S.E.M. (human EAAT3): 4.94 ± 0.16; EAAT2 pIC50 ± S.E.M. (human EAAT2; value in brackets, Table 1): 4.42 ± 0.11; EAAT1 pIC50 ± S.E.M. (human EAAT1; value in brackets, Table 1): 4.87 ± 0.08
O=C(C1CC2CCC1C2)N1CCN(c2ccccc2)CC1 (racemic) [(±)-endo-exo-3.1, Bicyclo[2.2.1]heptan-2-yl(4-phenylpiperazin-1-yl)methanone]							IC50 (human EAAT3; [4]): > 300 µM; IC50 (human EAAT2; [5]): > 300 µM; inhibitory activity at EAAT1-3 (in words) (human EAAT1-3): loss of inhibitory activity; IC50 (human EAAT1; [6]): > 300 µM
O=C(C1CC2CCC1C2)N1CCN(c2ccccc2C(F)(F)F)CC1 (racemic) [(±)-endo-exo-3.5, (±)-endo-exo-Bicyclo[2.2.1]heptan-2-yl(4-(2-(trifluoromethyl)phenyl)piperazin-1-yl)methanone]							IC50 (human EAAT3; [4]): > 300 µM; IC50 (human EAAT2; [5]): > 300 µM; inhibitory activity at EAAT1-3 (in words) (human EAAT1-3): loss of inhibitory activity; IC50 (human EAAT1; [6]): ~300 µM
O=C(C1CC2CCC1C2)N1CCN(c2cccc(Cl)c2)CC1 (racemic) [(±)-endo-exo-3.7, (±)-endo-exo-Bicyclo[2.2.1]heptan-2-yl(4-(3-chlorophenyl)piperazin-1-yl)methanone]							IC50 (human EAAT3; [4]): > 300 µM; IC50 (human EAAT2; [5]): ~300 µM; IC50 (human EAAT1; [6]): ~300 µM
N#Cc1cccc(N2CCN(C(=O)C3CC4CCC3C4)CC2)c1 (racemic) [(±)-endo-exo-3.9, 3-(4-(bicyclo[2.2.1]heptane-2-carbonyl)piperazin-1-yl)benzonitrile]							IC50 (human EAAT3; [4]): > 300 µM; IC50 (human EAAT2; [5]): > 300 µM; IC50 (human EAAT1; [6]): > 300 µM
COc1cccc(N2CCN(C(=O)C3CC4CCC3C4)CC2)c1 (racemic) [(±)-endo-exo-3.10, (±)-endo-exo-Bicyclo[2.2.1]heptan-2-yl(4-(3-methoxyphenyl)piperazin-1-yl)methanone]							IC50 (human EAAT3; [4]): > 300 µM; IC50 (human EAAT2; [5]): > 300 µM; IC50 (human EAAT1; [6]): > 300 µM
O=C(C1CC2CCC1C2)N1CCN(c2ccc(F)cc2F)CC1 (racemic) [(±)-endo-exo-3.11, (±)-endo-exo-Bicyclo[2.2.1]heptan-2-yl(4-(2,4-difluorophenyl)piperazin-1-yl)methanone]							IC50 (human EAAT3; [4]): > 300 µM; IC50 (human EAAT2; [5]): > 300 µM; IC50 (human EAAT1; [6]): > 300 µM
O=C(C1CC2CCC1CC2)N1CCN(c2cccc(C(F)(F)F)c2)CC1 (centres unmarked) [2.1, Bicyclo[2.2.2]octan-2-yl(4-(3-(trifluoromethyl)phenyl)piperazin-1-yl)methanone]	> 300 µM	> 300 µM	> 300 µM				
O=C(N1CCN(c2cccc(C(F)(F)F)c2)CC1)C12CC3CC(CC(C3)C1)C2 [2.2, Adamantan-1-yl(4-(3-(trifluoromethyl)phenyl)piperazin-1-yl)methanone]				> 300 µM	> 300 µM	> 300 µM	
O=C(C1CCCC1)N1CCN(c2cccc(C(F)(F)F)c2)CC1 [2.4, Cyclopentyl(4-(3-(trifluoromethyl)phenyl)piperazin-1-yl)methanone]				> 300 µM	> 300 µM	> 300 µM	
O=C(C1CC1)N1CCN(c2cccc(C(F)(F)F)c2)CC1 [2.5, Cyclopropyl(4-(3-(trifluoromethyl)phenyl)piperazin-1-yl)methanone]	> 300 µM	> 300 µM	> 300 µM				
CC(C)(C)C(=O)N1CCN(c2cccc(C(F)(F)F)c2)CC1 [2.6, 2,2-Dimethyl-1-(4-(3-(trifluoromethyl)phenyl)piperazin-1-yl)propan-1-one]				> 300 µM	> 300 µM	> 1000 µM	
CC(=O)N1CCN(c2cccc(C(F)(F)F)c2)CC1 [2.7, 1-(4-(3-(Trifluoromethyl)phenyl)piperazin-1-yl)ethanone]	> 100 µM	> 100 µM	> 1000 µM				
CC(C)CC(=O)N1CCN(c2cccc(C(F)(F)F)c2)CC1 [2.8, 3-Methyl-1-(4-(3-(trifluoromethyl)phenyl)piperazin-1-yl)butan-1-one]	> 300 µM	> 300 µM	> 300 µM				
CC(C)(C)CC(=O)N1CCN(c2cccc(C(F)(F)F)c2)CC1 [2.9, 3,3-Dimethyl-1-(4-(3-(trifluoromethyl)phenyl)piperazin-1-yl)butan-1-one]	> 300 µM	> 300 µM	> 300 µM				
CC(C)CCC(=O)N1CCN(c2cccc(C(F)(F)F)c2)CC1 [2.10, 4-Methyl-1-(4-(3-(trifluoromethyl)phenyl)piperazin-1-yl)pentan-1-one]	> 300 µM	> 300 µM	> 300 µM				
O=C(c1cccc(Oc2ccccc2)c1)N1CCN(c2cccc(C(F)(F)F)c2)CC1 [2.13, (3-Phenoxyphenyl)(4-(3-(trifluoromethyl)phenyl)piperazin-1-yl)methanone]	> 300 µM	> 300 µM	> 300 µM				
O=C(c1cccc2ccccc12)N1CCN(c2cccc(C(F)(F)F)c2)CC1 [2.15, Naphthalen-1-yl(4-(3-(trifluoromethyl)phenyl)piperazin-1-yl)methanone]				> 300 µM	> 300 µM	> 300 µM	
O=C(c1cccs1)N1CCN(c2cccc(C(F)(F)F)c2)CC1 [2.16, Thiophen-2-yl(4-(3-(trifluoromethyl)phenyl)piperazin-1-yl)methanone]				> 100 µM	> 100 µM	> 100 µM	
O=C(Cc1ccccc1)N1CCN(c2cccc(C(F)(F)F)c2)CC1 [2.17, 1-(4-(3-(Trifluoromethyl)phenyl)piperazin-1-yl)-2-phenylethanone]				> 1000 µM	> 300 µM	> 300 µM	
Nc1ccc(C(=O)N2CCN(c3cccc(C(F)(F)F)c3)CC2)cc1 [2.18, 4-Aminophenyl-(4-(3-(trifluoromethyl)phenyl)piperazin-1-yl)methanone]				> 300 µM	> 300 µM	> 300 µM	
Nc1cccc(C(=O)N2CCN(c3cccc(C(F)(F)F)c3)CC2)c1 [2.19, 3-Aminophenyl-(4-(3-(trifluoromethyl)phenyl)piperazin-1-yl)methanone]				> 300 µM	> 300 µM	> 300 µM	
NCC(=O)N1CCN(c2cccc(C(F)(F)F)c2)CC1 [2.20, 2-Amino-1-(4-(3-(trifluoromethyl)phenyl)piperazin-1-yl)ethanone]				> 300 µM	> 300 µM	> 300 µM	
FC(F)(F)c1cccc(N2CCN(Cc3ccccc3)CC2)c1 [2.35, 1-Benzyl-4-(3-(trifluoromethyl)phenyl)piperazine]				> 1000 µM	> 300 µM	> 300 µM	
